Patent US12729194B2, “Compounds for the treatment of human immunodeficiency virus” (priority 2019, dated 2026)

Assays:
HIV-1 Env complexes = experiment: Association of gp120 with detergent-solubilized His6-tagged Env complexes (Ni-NTA precipitation, Western blot)
Description: Association of gp120 with Env complexes: The non-covalent association of gp120 with HIV-1 Env complexes was studied using carboxy-terminally His6-tagged Envs from three different sources: 1) VLPs produced from A549-Gag/Env cells; 2) A549 cells expressing HIV-1AD8 and HIV-1CH848 Envs; and 3) HOS cells transiently expressing wild-type HIV-1JR-FL Env and wild-type and mutant HIV-1AD8 Envs. VLP and cell lysates from A549 cells were prepared in 1.5% Triton X-100. Cell lysates from HOS cells were prepared in 1.5% Cymal-5 (Anatrace). The VLP and cell lysates were clarified as described above. DMSO, a compound described herein, sCD4 or the CD4-mimetic compound, BNM-III-170 (Melillo, ACS Med Chem Letters 7, 33-334, 2016), was added to the lysate. Aliquots of the lysates were saved for Western blotting to detect the gp160, gp120 and gp41 glycoproteins in the input sample. The bulk of the lysates was incubated with nickel-nitriloacetic acid (Ni-NTA) beads (Qiagen) for 1.5 hours at 4° C. The beads were pelleted (1000 rpm for 1 minute at room temperature), washed 3 times with wash buffer with 1% Triton X-100, boiled in LDS sample buffer, and analyzed by Western blotting as described above.

[1] = test system: cell-surface HIV-1AD8 Env; experiment: Recognition of cell-surface Env by C34-Ig and CD4-Ig; assay type: cell-based
Description: Immunoprecipitation of cell-surface Env: Doxycycline-induced A549-Env cells were washed twice with washing buffer (1×PBS+5% FBS), with or without 10 μM BMS-806 or compounds described herein. The cells were then incubated with 5 μg/ml antibody for one hour at 4° C. in the continued presence or absence of the compounds described herein. After washing four times in washing buffer, the cells were lysed in NP-40 lysis buffer (0.5% NP-40, 0.5 M NaCl, 10 mM Tris, pH 7.5) for five minutes at 4° C. with gentle agitation. Unless specifically indicated otherwise, compounds described herein were not added to the NP-40 lysis buffer. The lysates were cleared by centrifugation at 13,200×g for 20 minutes at 4° C., and the clarified supernatants were incubated with Protein A-Sepharose beads (50 μl of 25 mg/ml in PBS per sample) for one hour at room temperature. The beads were pelleted (1000 rpm×1 min) and washed three times with final wash buffer (200 mM Tris-HCl, pH 8.0, 100 mM (NH4)2SO4, 1 M NaCl and 0.1% NP-40). The beads were suspended in LDS sample buffer, boiled and analyzed by Western blotting using 1:2000 goat anti-gp120 polyclonal antibody (ThermoFisher) and 1:2000 HRP-conjugated rabbit anti-goat IgG (ThermoFisher). The transmembrane Env was analyzed by Western blot with the 4E10 anti-gp41 antibody and HRP-conjugated goat anti-human IgG (Santa Cruz).
The effect of BMS-806 on the recognition of the cell-surface HIV-1AD8 Env by CD4-Ig and C34-Ig was evaluated. CD4-Ig is a soluble CD4-immunoglobulin fusion protein, and C34-Ig contains the gp41 HR2 region fused to an immunoglobulin Fc. C34-Ig efficiently recognized the cell-surface Env only after incubation with soluble CD4 (sCD4) (FIG. 1C, left panel). BMS-806 blocked C34-Ig recognition of Env in the presence of sCD4.

[2] = HIV-1AD8 Env variant in HOS cell lysates

With COc1ccnc2[nH]cc(C(=O)C(=O)N3CCN(C(=O)c4ccccc4)C[C@H]3C)c12 [BMS-806, reference compound] the “sCD4-induced shedding of gp120 from Env complexes” value (HIV-1 Env complexes; 10 μM added to cell lysates) was “could be blocked”, the “BMS-806-induced gp120-Env association, I559F mutant” value (HIV-1 Env complexes; [2]) was “abrogated responsiveness to BMS-806” and the “BMS-806-induced gp120-Env association, L193A mutant” value (HIV-1 Env complexes; [2]) was “poor responsiveness”. The “CD4-Ig binding to the gp120 and gp160 Envs” value ([1]; 500 nM) was “still detected”, the “C34-Ig binding to Env” value ([1]; 500 nM, with sCD4) was “inhibited almost completely” and the “CD4-Ig recognition of Env” value ([1]; 10 μM) was “inhibited CD4-Ig recognition of the gp120 glycoprotein on the mature Env, but not the uncleaved gp160 Env”.
